“Also recorded” adds a separate entry of the source.
Legend:
[1] = system: human platelets; experiment: Thrombin-induced aggregation of washed human platelets; assay type: cell-based; conditions: for effect on the apelin inhibitory effect on thrombin-induced aggregation: human platelets, peptide together with apelin; for thrombin-induced platelet aggregation: human platelets preincubated with peptide alone
Protocol: FIG. 5: APJ antagonist […]) and unprocessed double mutant apelin-36 (apelin-DM) confirm the role of APJ in the inhibition of platelet function by apelin. Thrombin-induced aggregation of human platelets preincubated with PBS, as control (black bar); […] (100 nM; white bar); apelin (10 nM; grey bar) or […] (100 nM) plus apelin (10 nM) (dashed bar). Venous blood was collected from healthy donors on 10% (v/v) trisodium citrate (3.8%). Written informed consent was obtained from all the donors. Platelet-rich plasma (PRP) was obtained by centrifugation (120 g; 15 minutes; 20° C.) and platelets were isolated by differential centrifugation as previously described^15. The platelet pellet was resuspended in modified Tyrode-HEPES buffer without CaCl2 (137 mM NaCl, 2 mM KCl, 0.3 mM NaH2PO4, 5.5 mM glucose, 5 mM Hepes, 12 mM NaHCO3, pH 7.3). Platelet aggregation was monitored by measuring light transmission through the stirred suspension of washed platelets (3×10^8/mL) at 37° C. in presence of 1 mM CaCl2 using a Chronolog aggregometer (Chrono-log Corporation, USA). When mentioned, platelets were first incubated with apelin-13, apelin-36, apelin-DM or […] for 3 minutes at 37° C. Platelet aggregation was triggered by adding collagen, thrombin, or ADP. Representative traces for aggregation were obtained from at least three independent experiments. Results are expressed as the percent change in light transmission with respect to the blank (buffer without platelets), set at 100%.

[2] = system: human platelets; experiment: Intracellular Ca2+ mobilization in thrombin-stimulated human platelets (Fura-2); assay type: cell-based; conditions: for effect on the apelin inhibitory effect on thrombin-induced Ca2+ mobilisation: human platelets, peptide together with apelin; for thrombin-induced Ca2+ mobilisation: human platelets preincubated with peptide alone
Protocol: FIG. 6: APJ antagonist […]) and unprocessed double mutant apelin-36 (apelin-DM) confirm the role of APJ in the inhibition of platelet function by apelin. Intracellular Ca^2+ mobilization ([Ca^2+]i) in human platelets was monitored in real-time using a fluorescence spectrophotometer. Human platelets, loaded with Fura-2-AM were preincubated 3 minutes with PBS, as control (black bar); […] (100 nM; white bar); apelin (10 nM; grey bar) or […] (100 nM) plus apelin (10 nM) (dashed bar) before stimulation by thrombin (100 mU/mL). […] Human platelets were loaded with Fura-2 by incubation with 2 μM Fura-2-AM for 45 minutes at 37° C. Cells were then collected by centrifugation at 350 g for 15 min and resuspended in HEPES-buffered saline (145 mM NaCl, 10 mM HEPES, 10 mM D-glucose, 5 mM KCl, 1 mM MgSO4, pH 7.4), and supplemented with 0.1% (w/v) BSA. Fluorescence was recorded from 2 mL aliquots of magnetically stirred cell suspensions at 37° C. using a fluorescence spectrophotometer (Varian Ltd., Madrid, Spain) with excitation wavelengths of 340 and 380 nm and emission at 505 nm. Changes in [Ca^2+]i were monitored using the Fura-2 340/380 fluorescence ratio and calibrated according to the method of Grynkiewicz et al.^19. Ca^2+ release by thrombin was estimated using the integral of the rise in [Ca^2+]i for 2.5 minutes after its addition, taking a sample every second, and was expressed in nM as previously described^20.

[3] = system: wild-type mice; experiment: Tail bleeding time after intravenous injection; assay type: in vivo, mouse; conditions: for effect on the apelin-induced increase in bleeding time: peptide together with apelin; for tail bleeding time: peptide alone
Description: FIG. 7: APJ antagonist […]) and unprocessed double mutant apelin-36 (apelin-DM) confirm the role of APJ in the inhibition of platelet function by apelin. Tail bleeding time in wild-type mice receiving an intravenous injection of PBS, as control (●); […] (500 nmol/kg; ▪); apelin (50 nmol/kg; ◯) or […] (500 nmol/kg) plus apelin (50 nmol/kg) (□). FIG. 8: APJ antagonist […]) and unprocessed double mutant apelin-36 (apelin-DM) confirm the role of APJ in the inhibition of platelet function by apelin. Tail bleeding time in wild-type mice receiving an intravenous injection of PBS, as control (●); apelin (50 nmol/kg; ◯); apelin-36 (500 nmol/kg; Δ); apelin-DM (500 nmol/kg; ▪), apelin-36 plus apelin (▾) or apelin-DM plus apelin (□). Complete blood counts and haematocrit were determined with an automatic cell counter, using the standard parameters for mice. Bleeding time assays were performed on overnight fasted animals, after injection of PBS, apelin-13, apelin-36, apelin-DM or […] into the retro-orbital plexus, by cutting off the tip of the tail (3 mm from the tip) and immediately immersing it in saline at 37° C. We then recorded the time taken for the bleeding to stop.

[4] = system: HUVEC; experiment: HUVEC proliferation induced by VEGF (Cell Titer96 assay); assay type: cell-based, human
Protocol: FIG. 9: HUVEC proliferation and motility. HUVEC were serum deprived overnight and then treated for 24 h with or without VEGF in the presence of apelin wild-type (10 ng/ml) and/or apelin mut-36 (10 ng/ml). Cell proliferation was assessed using Cell Titer96 non-radioactive cell proliferation assay.

[5] = system: HUVEC; experiment: Endothelial cell migration (motility) induced by VEGF; assay type: cell-based, human
[6] = system: chick chorioallantoic membrane; experiment: Chick chorioallantoic membrane (CAM) assay; assay type: in vivo
[7] = system: mouse aortic ring; experiment: Mouse aortic ring assay
[8] = Cutaneous reverse passive Arthus reactions assay; assay type: in vivo
[9] = system: proApelin processing; experiment: proApelin processing in transfected cells with PC inhibitors (immunoblot); assay type: cell-based, human; conditions: cell transfection experiments, coexpression with apelin
Description: FIG. 2: Human apelin cDNA encodes a protein of 77 amino acid residues. Newly synthesized apelin is a preproprotein that is proteolytically processed in order to generate mature 36, 17 and 13 amino acid forms. We cloned human apelin into pIRES2-eGFP vector adding a V5 tag in C-terminus of the apelin sequence. […] To identify the PCs involved in apelin processing, apelin and each of the PCs were transiently co-expressed in LoVo cells, a furin-deficient cell line. Supernatants were collected 24 hours after transfection and analyzed for proapelin processing by immunoblotting using a V5 antibody. As illustrated in (a), analyses of media derived from LoVo cells cotransfected with vector encoding proapelin and control vector show a band with an apparent molecular mass of 8-9 kDa, corresponding to the intact apelin precursor. […] FIG. 3: […]

Substance: LVQPRGSRNGPGPWQGGSSKFSSQRPRLSHKGPMPF (Synthetic inhibitor of apelin) [Apelin-DM, unprocessed mutant of apelin; cleavage sites of proapelin (18RRKFRR) replaced by 18SSKFSS]
- effect on the apelin inhibitory effect on thrombin-induced aggregation [1]: abolished the apelin inhibitory effect
- effect on the apelin inhibitory effect on thrombin-induced Ca2+ mobilisation [2]: abolished the apelin inhibitory effect
- effect on the apelin-induced increase in bleeding time [3]: inhibited
- endothelial cell proliferation induced by VEGF [4]: inhibits
- endothelial cell migration induced by VEGF [5]: inhibits
- formation of new vessels (neo-vascularisation) [6]: prevents the neo-vascularisation
- formation of new vessels (neo-vascularisation) [7]: prevents the neo-vascularisation
- tissue inflammation [8]: inhibited these processes

Substance: ppPC5: PC inhibitor, prosegment proPC5
- processing of proApelin [9]: inhibited

Substance: apelin
- tissue inflammation [8]: increased tissue inflammation

Substance: alpha1-PDX: Furin inhibitor serpin alpha1-antitrypsin, furin-motif variant of α1-antitrypsin
- processing of proApelin [9]: inhibited

Substance: F13A: APJ receptor antagonist apelin-13 (F13A)
- thrombin-induced platelet aggregation [1]: no effects
- effect on the apelin inhibitory effect on thrombin-induced aggregation [1]: prevents the inhibitory effects of apelin alone; also recorded: abolished the apelin inhibitory effect
- thrombin-induced Ca2+ mobilisation [2]: no effects
- effect on the apelin inhibitory effect on thrombin-induced Ca2+ mobilisation [2]: prevents the inhibitory effects of apelin alone; also recorded: abolished the apelin inhibitory effect
- tail bleeding time [3]: no effects
- effect on the apelin-induced increase in bleeding time [3]: prevents the inhibitory effects of apelin alone; also recorded: inhibited

Substance: apelin-13
- thrombin-induced platelet aggregation [1]: inhibited
- thrombin-induced Ca2+ mobilisation [2]: inhibited
- tail bleeding time [3]: significant increase in bleeding time
- formation of new vessels (neo-vascularisation) [6]: induced the formation of new vessels
- formation of new vessels (neo-vascularisation) [7]: induced the formation of new vessels

Substance: Apelin-36: proApelin (Apelin-36), 36 amino acid cleavage product of preproapelin (LVQPRGSRNGPGPWQGGRRKFRRQRPRLSHKGPMPF; listed as Homo sapiens)
- thrombin-induced platelet aggregation [1]: inhibited
- thrombin-induced Ca2+ mobilisation [2]: inhibited
- tail bleeding time [3]: significant increase in bleeding time

Substance: ppFurin: Furin inhibitor, prosegment proFurin
- processing of proApelin [9]: inhibited
